Measurements taken from patent US20050191693A1, “Methods and cell populations for identifying and validating genomic targets, and for drug screening” (priority 2001, published 2005).
Read-outs that look alike come from different tables or passages of the source.

Legend:
[1] = tested on: CT-1 promoter; assay: CT1-promoter luciferase reporter activity in ES cell-derived cardiomyocytes; type: cell-based, mouse; settings: 0.1 μM, incubation for 4h, corrected for total protein
Protocol: Gated cardiomyocytes where cultivated in 6 cm tissue culture dishes. Fresh medium was supplemented with the test compound in concentrations ranging from 0.01-10 μM. For heat shock treatment the cells where incubated at 42° C. for 30 min. Mock treated cells served as control. […] After 4h of incubation the cells where washed with PBS, collected in reporter lysis buffer (RLB, Promega) and stored at −80° C. The Luciferase-activity in the thawed lysates was measured by flash-light Luciferase assay (Promega). In order to quantify Luciferase-activity a serial diluted recombinant Luciferase standard was analyzed in parallel. Values for Luciferase-activity where correct for the amount of total protein in the lysates measured by BCA-assay (Pierce). The transcriptional activity of the CT1-promoter was analyzed by measurement of Luciferase activity in the cellular lysates.

[2] = tested on: ES-cell derived cardiomyocytes; assay: Beating frequency of ES cell-derived cardiomyocytes (contractions counted manually during 15 sec); type: cell-based, mouse; settings: cardiomyocytes 25 days after start of differentiation
Protocol: Gated cardiomyocytes where cultivated in 6 cm tissue culture dishes. Fresh medium was supplemented with the test compound in concentrations ranging from 0.01-10 μM. For heat shock treatment the cells where incubated at 42° C. for 30 min. Mock treated cells served as control. Effects on the cardiomyocyte beating rate where recorded by manually counting the number of contractions during 15 sec. Beating rates have been recorded before addition of substances and 15 min and 4h after addition. After 4h of incubation the cells where washed with PBS, collected in reporter lysis buffer (RLB, Promega) and stored at −80° C.
Effects of noradrenaline are mediated via alpha and beta-adrenergic receptors, while isoproterenol effects are mediated specific via β-adrenergic receptors. Since β1 receptors play a pivotal role in mediating the beating rate, we analyzed changes in beating frequency of cardiomyocytes as a first indication of a response towards the tested compounds. The beating rate of a individual cluster per plate has been recorded before, 15 min after application of the stimulus and after 4h incubation. FIG. 3 summarizes the data of such an analysis using cardiomyocytes 25 days after start of differentiation. […] Due to the low starting beating frequency in some cases the x-fold increase is quite high. Nevertheless these elevated beating frequencies where still in the physiological range. […]

[3] = tested on: cardiomyocyte nuclei in the ventricular septum; parameters: species or system mice; settings: mouse, in vivo, 7 days
Protocol: Cryosections (10 μm) were generated using standard histologic techniques. For ISEL analysis, cryosections were processed using the Oncogene Research KLENOW-FragEL DNA Fragmentation Detection Kit. Signal was developed with biotinylated nucleotides and horseradish peroxidase (HRP) conjugated streptavidin (Roche Molecular Biochemicals). Signal was generated by incubation with diaminobenzidine using standard techniques. Beta-galactosidase activity was detected in the same sections via X-GAL staining as described (Soonpaa M. H. et al. (1994) Science 264: 98-101).
Isoproterenol is a beta-adrenergic agonist that induces cardiomyocyte hypertrophy both in vitro and in vivo. Prolonged exposure to isoproterenol is cardiotoxic, inducing cardiomyocyte apoptosis via a mechanism similar to that encountered during the progression of heart failure. The MHC-1152stp mice were tested to determine if transgene expression was cardioprotective during isoproterenol infusion, and specifically to see if 1152stp expression could antagonize isoproterenol-induced cardiomyocyte apoptosis. […]
Mice with a MHC-1152stp/MHC-nLAC genotype and a (−)/MHC-nLAC genotype were culled, and at 12 weeks of age were implanted with isoproterenol-filled osmotic mini-pumps, as described in several studies from our group (Soonpaa M. H. and Field L. J. (1994) American Journal of Physiology 266 (Heart and Circulatory Physiology 35): H1439-1445; Pasumarthi K. B., Nakajima H., Nakajima H. O., Jing S., Field L. J. (2000) Circ Res. 86: 1069-1077). […] Cardiomyocyte apoptosis was then calculated simply by determining the incidence of black HRP signal over blue nuclear staining; these analyses focused on cardiomyocytes residing in the ventricular septum, where the cardiotoxic effects of isoproterenol appear to be most pronounced. […]

[4] = MHC-nLAC transgenic ((−)/MHC-nLAC genotype)

% ISEL Positive ([3]; (−)/MHC-nLAC transgenic)	% ISEL Positive [3, 4]	ISEL Positive CM Nuclei [3, 4]	Compound	increase of CT1-promoter activity (Luciferase activity) compared to the untreated control [1]	change in beating frequency ([2]; 0.1 μM)	change in beating frequency ([2]; recorded before, 15 min and 4h after application, 0.01-10 μM)
–	–	–	CN(C)CCCN1c2ccccc2CCc2ccccc21 [imipramine]	more than 2 fold	increase in beating frequencies	–
~0.1%	0.098%	35 of 35604	CC(C)NCC(O)c1ccc(O)c(O)c1 (stereo not shown) [isoproterenol]	–	–	–
–	–	–	NC[C@H](O)c1ccc(O)c(O)c1 [noradrenaline]	1.73 fold	–	dose dependent increase
